Patent US20220023533A1, “SUBCUTANEOUS DELIVERY OF HIGH CONCENTRATION FORMULATIONS” (JAZZ PHRMACETICALS IRELAND LIMITED, priority 2018, published 2022)

Assays:
[1] = cited from earlier work; for pKa2: α-ammonium ion; for pKa1: α-carboxyl group; for pKa3: side chain group
[2] = Osmolality of defibrotide formulations with various buffers and excipients; format: physicochemical
Method: (§1) It is important for pharmaceutical preparations for oral or parenteral administration to be of low-viscosity and/or isotonic. In order to identify buffers or excipients that may lower the viscosity and/or osmolality of defibrotide formulations, a wide-panel screening of various buffers and excipients (including GRAS excipients) was performed using a 200 mg/mL defibrotide formulation.

[3] = Viscosity of defibrotide formulations with various buffers and excipients; format: physicochemical
Method: as §1

Compound | pI [1] | pKa2 [1] | pKa1 [1] | Effect of increasing the defibrotide concentration in the formulation on osmolality [2] | Effect of increasing the defibrotide concentration in the formulation on viscosity [3] | pKa value ([1]; buffer or excipient) | pKa3 [1]
N[C@@H](Cc1ccccc1)C(=O)O [Phenylalanine] | 5.48 | 9.13 | 1.83 | – | – | – | –
CC[C@H](C)[C@H](N)C(=O)O [Isoleucine] | 6.02 | 9.60 | 2.36 | – | – | – | –
C[C@@H](O)[C@H](N)C(=O)O [Threonine] | 5.60 | 9.10 | 2.09 | – | – | – | –
Defibrotide | – | – | – | increase | increase | – | –
N[C@@H](Cc1ccc(O)cc1)C(=O)O [Tyrosine] | 5.66 | – | – | – | – | – | –
N[C@@H](CO)C(=O)O [Serine] | 5.68 | 9.15 | – | – | – | – | –
O=S(=O)(O)CCN1CCN(CCO)CC1 [HEPES buffer] | – | – | – | – | – | 7.564 | –
C[C@H](N)C(=O)O [Alanine] | 6.00 | 9.69 | 2.34 | – | – | – | –
CSCC[C@H](N)C(=O)O [Methionine] | 5.74 | 9.21 | 2.28 | – | – | – | –
O=C(O)[C@@H]1CCCN1 [Proline] | 6.30 | 10.6 | 1.99 | – | – | – | –
NCCCC[C@H](N)C(=O)O [Lysine] | 9.74 | 8.95 | 2.18 | – | – | – | 10.53
N[C@@H](Cc1c[nH]c2ccccc12)C(=O)O [Tryptophan] | – | 9.39 | 2.83 | – | – | – | –
N=C(N)NCCC[C@H](N)C(=O)O [Arginine] | 10.76 | 9.04 | 2.17 | – | – | – | 12.48
CC(C)[C@H](N)C(=O)O [Valine] | 5.96 | 9.62 | 2.32 | – | – | – | –
NC(=O)C[C@H](N)C(=O)O [Asparagine] | 5.41 | 8.80 | 2.02 | – | – | – | –
N[C@@H](CS)C(=O)O [Cysteine] | 5.07 | 8.18 | 1.96 | – | – | – | –
